Legend:
[1] = molecular target: androgen receptor (Homo sapiens, UniProt P10275); conditions: concentration; cited from earlier work
[2] = Pharmacokinetic arm: cobalt disposition in plasma, tissues, urine and feces after intraprostatic CoCl2-NAC injection, total cobalt by ICP; format: in vivo, rat
Procedure: (§1) A toxicity and pharmacokinetic study of intraprostatically-administered cobalt dichloride-N-acetyl cysteine (CoCl2-NAC) was conducted in a rat model by the Pharmaceutical Development Center in the Department of Veterinary Medicine and Surgery (DVMS) facilities, U.T.M.D. Anderson Cancer Center, (Houston, Tex.). CoCl2-NAC is a novel MRI marker for prostate brachytherapy under development for use in localization of implanted radioactive seeds under MRI. […] The purpose of this study was to evaluate the distribution and potential toxicity of Co-NAC systemic exposure secondary to potential leakage from in-situ rupture of the Co-NAC-ECAMs in a male rat model.
The volume of CoCl2-NAC injected (9 μl) was predetermined on the assumption of 80-120 seeds leaking into the human prostate following implantation and scaling to a 150 gram male rat model. Cobalt disposition in plasma and tissues and organ toxicity were evaluated. For the pharmacokinetic arm, 60 male rats (20/group) were assigned to two dose groups and a vehicle control group and administered 1% (low concentration) and 10% (high concentration) CoCl2-NAC or vehicle control as an injection into the prostate. Following dosing, one cohort of 5 animals from each dose-level was sacrificed at 5, 30, and 60 minutes and 6 hours following the end of drug administration. Specific tissues (spleen, heart, brain, prostate, lung, kidney, liver, gut) from all animals were harvested, blotted, and weighed. An additional 3 animals were administered the high concentration and were maintained individually in metabolic cages. Urine and feces were collected at the end of 60 min, 6 and 24 hr intervals on the day prior to dosing and post dosing the following day. All samples were analyzed for total cobalt content by inductively-coupled plasma (ICP) analysis. For the toxicity arm, 30 male rats (10/group) were assigned to two dose groups and a vehicle control group and administered 1% and 10% CoCl2-NAC or vehicle control injected into the prostate. […]

[3] = Toxicity arm: single intraprostatic CoCl2-NAC injection, clinical pathology, gross and microscopic pathology; format: in vivo, rat
Procedure: as §1
The volume of CoCl2-NAC injected (9 μl) was predetermined on the assumption of 80-120 seeds leaking into the human prostate following implantation and scaling to a 150 gram male rat model. Cobalt disposition in plasma and tissues and organ toxicity were evaluated. For the pharmacokinetic arm, 60 male rats (20/group) were assigned to two dose groups and a vehicle control group and administered 1% (low concentration) and 10% (high concentration) CoCl2-NAC or vehicle control as an injection into the prostate. Following dosing, one cohort of 5 animals from each dose-level was sacrificed at 5, 30, and 60 minutes and 6 hours following the end of drug administration. Specific tissues (spleen, heart, brain, prostate, lung, kidney, liver, gut) from all animals were harvested, blotted, and weighed. An additional 3 animals were administered the high concentration and were maintained individually in metabolic cages. Urine and feces were collected at the end of 60 min, 6 and 24 hr intervals on the day prior to dosing and post dosing the following day. All samples were analyzed for total cobalt content by inductively-coupled plasma (ICP) analysis. For the toxicity arm, 30 male rats (10/group) were assigned to two dose groups and a vehicle control group and administered 1% and 10% CoCl2-NAC or vehicle control injected into the prostate. Groups of animals were sacrificed and necropsied on Study Days 1 (24 hrs) and 14 and blood and tissues collected for evaluation of clinical pathology and organ toxicity.

[4] = Relaxivity measurements on 1.5-T clinical MRI scanner; format: physicochemical
Procedure: All studies were performed on a 1.5-T clinical MRI scanner (Excite HD, GE Healthcare Technologies, Waukesha, Wis.) equipped with a high-performance gradient hardware package (Cardiac Resonance Module) and multichannel, fast-receiver hardware. The maximal achievable slew rate was 120 mT/m/s, maximal amplitude was 23 mT/m, and receiver bandwidth was 500 kHz. For relaxation measurements, the samples were placed in a room temperature water bath and imaged using a quadrature knee coil. T1-weighted measurements used an inversion recovery spin-echo technique (repetition time [TR]/[…] [TE], 5,000 ms/10 ms; inversion time, 50-4,000 ms). The T2-weighted measurements used a spin echo sequence (TR, 5,000 ms; TE, 20-1,000 ms). T2*-weighted measurements used a multi-echo, fast, gradient echo acquisition (TR, 600 ms; TE, 2-57 ms, with an echo spacing of 3.3 ms). All imaging data were analyzed using in-house software written in MATLAB (MathWorks, Natick, Mass.). The MRI sequences used for the ex vivo experiments have previously been described (see, Shetty, A. M., et al., Journal of Magnetic Resonance Imaging, Vol. 26, pp. 1672-1677 (2007)) and used a high-resolution, three-dimensional, spoiled gradient recalled echo acquisition (TR/TE, 15.6 ms/2.5 ms; flip angle, 60°; voxel size, 0.4×0.4×0.8 mm, receiver bandwidth, 488.3 Hz/pixel). The large flip angle was used to accentuate the signal from the ECAMs (with lower T1-weighted relaxation times) against the background. The high bandwidth and short echo time were chosen to minimize susceptibility artifacts in the region of the titanium markers.
Relaxivity measurements were obtained using the slope of the weighted least-squares regression of the relaxation rate versus concentration. […] The ratio of the relaxivities were >1 (r2/r1=1.21±0.29), which is consistent with T1-weighted positive contrast agents.

[5] = T1-weighted MRI visualization of contrast agent in seeds in agarose phantom
Procedure: Initially, the titanium and acrylic seeds were custom designed to have an outer and inner diameter of 3 mm and 1.5 mm and an outer length and inner hollow length of 4.5 mm and 3.5 mm, respectively. After injection of the cobalt-chloride complex contrast (CoCl2-NAC) agent into the manufactured seeds, MRI was performed on the seeds and strand-like combinations. For the canine prostate experiments, standard nonradioactive titanium seeds were incorporated into a synthesized strand, with acrylic and glass tubes cut with an outer diameter of 0.8 mm and length of 5.5 mm, injected with the CoCl2-NAC agent ([…]), and closed on the ends with two polymer taps.
All studies involving animals or animal tissues were performed under an Institutional Animal Care and Use Committee-approved protocol. For this experiment, after completion of another investigator's in vivo experiments, a canine prostate was excised at necropsy, placed in normal saline, and fixed in agarose gel (10% by weight, Type-A, Sigma-Aldrich, St. Louis, Mo.). The ECAMs were subsequently inserted into the prostate and imaged using MRI. Similarly, the ECAMs were inserted into an in-house-manufactured agarose phantom for direct visualization. The signal intensities of the agarose and prostatic tissue were similar on T1 weighted MRI, allowing substantial preliminary assessment of the relative contrast of the ECAMs without a tissue-based phantom. 1.5-T MRI T1-weighted sequences for imaging marker experiments.
All studies were performed on a 1.5-T clinical MRI scanner (Excite HD, GE Healthcare Technologies, Waukesha, Wis.) equipped with a high-performance gradient hardware package (Cardiac Resonance Module) and multichannel, fast-receiver hardware. The maximal achievable slew rate was 120 mT/m/s, maximal amplitude was 23 mT/m, and receiver bandwidth was 500 kHz. For relaxation measurements, the samples were placed in a room temperature water bath and imaged using a quadrature knee coil. T1-weighted measurements used an inversion recovery spin-echo technique (repetition time [TR]/[…] [TE], 5,000 ms/10 ms; inversion time, 50-4,000 ms). The T2-weighted measurements used a spin echo sequence (TR, 5,000 ms; TE, 20-1,000 ms). T2*-weighted measurements used a multi-echo, fast, gradient echo acquisition (TR, 600 ms; TE, 2-57 ms, with an echo spacing of 3.3 ms). All imaging data were analyzed using in-house software written in MATLAB (MathWorks, Natick, Mass.). […]

Chain of androgen receptor (P10275 whole entry, species assumed): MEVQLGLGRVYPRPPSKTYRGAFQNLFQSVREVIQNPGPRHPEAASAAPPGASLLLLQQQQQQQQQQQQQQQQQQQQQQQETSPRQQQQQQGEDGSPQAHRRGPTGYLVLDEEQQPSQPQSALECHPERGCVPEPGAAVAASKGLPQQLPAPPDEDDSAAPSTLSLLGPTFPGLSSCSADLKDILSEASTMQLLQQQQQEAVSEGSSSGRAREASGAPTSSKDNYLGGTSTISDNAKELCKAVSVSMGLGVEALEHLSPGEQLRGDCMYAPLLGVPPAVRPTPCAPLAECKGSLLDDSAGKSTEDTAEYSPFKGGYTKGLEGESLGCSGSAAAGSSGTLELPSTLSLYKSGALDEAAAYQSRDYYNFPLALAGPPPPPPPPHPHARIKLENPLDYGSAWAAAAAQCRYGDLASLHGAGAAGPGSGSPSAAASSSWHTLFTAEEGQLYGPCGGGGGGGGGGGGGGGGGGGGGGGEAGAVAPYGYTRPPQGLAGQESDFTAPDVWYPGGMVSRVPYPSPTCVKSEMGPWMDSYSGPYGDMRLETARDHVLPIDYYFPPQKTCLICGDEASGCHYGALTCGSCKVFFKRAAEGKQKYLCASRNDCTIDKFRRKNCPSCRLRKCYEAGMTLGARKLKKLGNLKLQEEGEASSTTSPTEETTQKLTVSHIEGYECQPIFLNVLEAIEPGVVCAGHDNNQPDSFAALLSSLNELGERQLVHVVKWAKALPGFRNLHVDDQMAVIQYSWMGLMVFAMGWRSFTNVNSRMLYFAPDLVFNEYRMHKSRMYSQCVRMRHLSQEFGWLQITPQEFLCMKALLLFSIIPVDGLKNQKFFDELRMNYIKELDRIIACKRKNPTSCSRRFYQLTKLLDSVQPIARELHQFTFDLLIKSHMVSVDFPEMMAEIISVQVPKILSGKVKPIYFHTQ

Compound	effect on transcriptional activity of androgen receptor [1]	peri-prostatic cobalt concentration by 60 minutes ([2]; high dose group (10%), 4 of 5 animals)	cobalt in kidney tissue ([2]; low dose group (1%))	cobalt in plasma ([2]; low dose group (1%))	alterations in group means of hematological or clinical chemistry parameters ([3]; 1% and 10% CoCl2-NAC, Study Days 1 and 14)	microscopic examination (histopathology) ([3]; 1% and 10% CoCl2-NAC, any of the tested dose levels)	test article-related morbidity or mortality ([3]; 1% and 10% CoCl2-NAC, intraprostatic, male rat)	no-observed-adverse-effect-level (NOAEL) ([3]; single intra-prostatic administration, male rat, highest dose tested) [% CoCl2-NAC solution]	test article-related adverse clinical signs ([3]; toxicology arm, 1% and 10% CoCl2-NAC)	ratio of the relaxivities r2/r1 [4]	spin-lattice relaxivity (r1) ([4]; room temperature water bath) [mM⁻¹ s⁻¹]	spin-spin relaxivity (r2) ([4]; room temperature water bath) [mM⁻¹ s⁻¹]	visualization of acrylic and glass hollow seeds containing the agent ([5]; 0.5-5 μL of aqueous solution (0.3-10 wt. %), phantom, 1.5-T MRI)	visualization inside the titanium seed ([5]; T1-weighted MRI, phantom)	signal on T1-weighted MRI inside polymer seeds ([5]; concentrations of 0.5-10%, in phantom)	signal on three-dimensional T1-weighted spoiled gradient recalled acquisition, compared with the various agents tested ([5]; in phantom)
CC(C)(O)C(=O)Nc1ccc([N+](=O)[O-])c(C(F)(F)F)c1 [hydroxyflutamide]	enhance the transcriptional activity	–	–	–	–	–	–	–	–	–	–	–	–	–	–	–
CC(=O)N[C@@H](CS)C(=O)O.[Cl][Co][Cl] [CoCl2-NAC, cobalt-dichloride-N-acetyl cysteine]	–	not quantifiable	No cobalt was measurable	no measurable cobalt	No toxicologically-important dose-related alterations	no histopathologic lesions	No test article-related morbidity or mortality	10	No test article-related adverse clinical signs	1.21±0.29	0.093 ± 0.022	0.105 ± 0.01	well visualized	could not be visualized	increased signal	highest signal

From patent US9555135B2, “Cobalt-based MRI contrast agent and imaging system” (BOARD OF REGENTS, THE UNIVERSITY OF TEXAS SYSTEM, priority 2011, dated 2017)
